Organism: Rattus norvegicus
Assay: Open TG-GATES - Regimen: Single
Format: toxicity, organism-based, Sprague-Dawley
Design: regimen Single, gender Male, age 6 weeks
Conditions: in vivo, iv, 6 mg/kg, route intravenous injection, dose level Low; for APTT / Bas / Eos / Fbg / Hb / Ht / Lym / MCH / MCHC / MCV / Mono / Neu / PT / Plat / RBC / Ret / WBC: tissue Blood; for KIDNEY_L / KIDNEY_R / KIDNEY_TOTAL: tissue Kidney; for LIVER: tissue Liver; for A/G / ALP / ALT / AST / BUN / CRE / Ca / Cl / DBIL / GLC / IP / K / LDH / Na / PL / RALB / TBIL / TC / TG / TP / gamma-GTP: tissue Plasma

SMILES: NCCBr [BROMOETHANAMINE]
- TERMINAL_BW (3 h): 221.9 g
- APTT (3 h): 22.5 s
- Bas (3 h): 0%
- Eos (3 h): 0.4%
- Fbg (3 h): 300 mg/dL
- Hb (3 h): 13.3 g/dL
- Ht (3 h): 39.3%
- Lym (3 h): 77.8%
- MCH (3 h): 21.5 pg
- MCHC (3 h): 33.8%
- MCV (3 h): 63.5 fL
- Mono (3 h): 3%
- Neu (3 h): 18%
- PT (3 h): 16 s
- Plat (3 h): 125.4 x10_4/uL
- RBC (3 h): 618.4 x10_4/ul
- Ret (3 h): 6.4%
- WBC (3 h): 83.3 x10_2/uL
- KIDNEY_L (3 h): 1 g
- KIDNEY_R (3 h): 1 g
- KIDNEY_TOTAL (3 h): 2 g
- LIVER (3 h): 10.5 g
- A/G (3 h): 1.2
- ALP (3 h): 1604 IU/L
- ALT (3 h): 44.6 IU/L
- AST (3 h): 78 IU/L
- BUN (3 h): 14.4 mg/dL
- CRE (3 h): 0.2 mg/dL
- Ca (3 h): 10.8 mg/dL
- Cl (3 h): 106.2 meq/L
- DBIL (3 h): 0 mg/dL
- GLC (3 h): 167.8 mg/dL
- IP (3 h): 7.9 mg/dL
- K (3 h): 4.4 meq/L
- LDH (3 h): 187.8 IU/L
- Na (3 h): 142 meq/L
- PL (3 h): 140.8 mg/dL
- RALB (3 h): 3 g/dL
- TBIL (3 h): 0.02 mg/dL
- TC (3 h): 76.8 mg/dL
- TG (3 h): 101 mg/dL
- TP (3 h): 5.4 g/dL
- gamma-GTP (3 h): 2 IU/L
- TERMINAL_BW (6 h): 218.1 g
- APTT (6 h): 23.7 s
- Bas (6 h): 0%
- Eos (6 h): 0.6%
- Fbg (6 h): 311 mg/dL
- Hb (6 h): 13.3 g/dL
- Ht (6 h): 39.1%
- Lym (6 h): 83%
- MCH (6 h): 21.1 pg
- MCHC (6 h): 34.1%
- MCV (6 h): 61.9 fL
- Mono (6 h): 2.6%
- Neu (6 h): 12.6%
- PT (6 h): 16.2 s
- Plat (6 h): 118.5 x10_4/uL
- RBC (6 h): 632.6 x10_4/ul
- Ret (6 h): 6.5%
- WBC (6 h): 95.2 x10_2/uL
- KIDNEY_L (6 h): 1 g
- KIDNEY_R (6 h): 1 g
- KIDNEY_TOTAL (6 h): 2 g
- LIVER (6 h): 9.3 g
- A/G (6 h): 1.1
- ALP (6 h): 1385.2 IU/L
- ALT (6 h): 39 IU/L
- AST (6 h): 71.4 IU/L
- BUN (6 h): 10.6 mg/dL
- CRE (6 h): 0.1 mg/dL
- Ca (6 h): 10.5 mg/dL
- Cl (6 h): 105.8 meq/L
- DBIL (6 h): 0 mg/dL
- GLC (6 h): 178.8 mg/dL
- IP (6 h): 8.9 mg/dL
- K (6 h): 4.4 meq/L
- LDH (6 h): 147 IU/L
- Na (6 h): 140.8 meq/L
- PL (6 h): 128.8 mg/dL
- RALB (6 h): 2.8 g/dL
- TBIL (6 h): 0.02 mg/dL
- TC (6 h): 74.4 mg/dL
- TG (6 h): 49.2 mg/dL
- TP (6 h): 5.4 g/dL
- gamma-GTP (6 h): 2 IU/L
- TERMINAL_BW (9 h): 207.3 g
- APTT (9 h): 22.3 s
- Bas (9 h): 0%
- Eos (9 h): 0.6%
- Fbg (9 h): 297 mg/dL
- Hb (9 h): 13.4 g/dL
- Ht (9 h): 38.5%
- Lym (9 h): 80.4%
- MCH (9 h): 21.4 pg
- MCHC (9 h): 34.7%
- MCV (9 h): 61.8 fL
- Mono (9 h): 2.2%
- Neu (9 h): 16.2%
- PT (9 h): 16.3 s
- Plat (9 h): 110.5 x10_4/uL
- RBC (9 h): 623.6 x10_4/ul
- Ret (9 h): 5.4%
- WBC (9 h): 73.1 x10_2/uL
- KIDNEY_L (9 h): 0.9 g
- KIDNEY_R (9 h): 0.9 g
- KIDNEY_TOTAL (9 h): 1.8 g
- LIVER (9 h): 8 g
- A/G (9 h): 1.2
- ALP (9 h): 1508.8 IU/L
- ALT (9 h): 34 IU/L
- AST (9 h): 70 IU/L
- BUN (9 h): 12.8 mg/dL
- CRE (9 h): 0.2 mg/dL
- Ca (9 h): 10.5 mg/dL
- Cl (9 h): 106.2 meq/L
- DBIL (9 h): 0 mg/dL
- GLC (9 h): 174 mg/dL
- IP (9 h): 9.1 mg/dL
- K (9 h): 4.3 meq/L
- LDH (9 h): 129 IU/L
- Na (9 h): 141.2 meq/L
- PL (9 h): 121.8 mg/dL
- RALB (9 h): 2.9 g/dL
- TBIL (9 h): 0.018 mg/dL
- TC (9 h): 71.6 mg/dL
- TG (9 h): 48.4 mg/dL
- TP (9 h): 5.4 g/dL
- gamma-GTP (9 h): 1.4 IU/L
- TERMINAL_BW (24 h): 221.5 g
- APTT (24 h): 23.6 s
- Bas (24 h): 0%
- Eos (24 h): 0.8%
- Fbg (24 h): 322.8 mg/dL
- Hb (24 h): 14 g/dL
- Ht (24 h): 40.5%
- Lym (24 h): 79.8%
- MCH (24 h): 21 pg
- MCHC (24 h): 34.6%
- MCV (24 h): 60.7 fL
- Mono (24 h): 2.8%
- Neu (24 h): 15.6%
- PT (24 h): 16.4 s
- Plat (24 h): 121.7 x10_4/uL
- RBC (24 h): 666.6 x10_4/ul
- Ret (24 h): 5.5%
- WBC (24 h): 96.1 x10_2/uL
- KIDNEY_L (24 h): 1 g
- KIDNEY_R (24 h): 1.1 g
- KIDNEY_TOTAL (24 h): 2.1 g
- LIVER (24 h): 10.8 g
- A/G (24 h): 1.1
- ALP (24 h): 1490 IU/L
- ALT (24 h): 44.6 IU/L
- AST (24 h): 67.6 IU/L
- BUN (24 h): 18 mg/dL
- CRE (24 h): 0.2 mg/dL
- Ca (24 h): 10.7 mg/dL
- Cl (24 h): 105.8 meq/L
- DBIL (24 h): 0 mg/dL
- GLC (24 h): 183.6 mg/dL
- IP (24 h): 6.8 mg/dL
- K (24 h): 4.6 meq/L
- LDH (24 h): 187.8 IU/L
- Na (24 h): 141.6 meq/L
- PL (24 h): 162.8 mg/dL
- RALB (24 h): 2.9 g/dL
- TBIL (24 h): 0.01 mg/dL
- TC (24 h): 90.8 mg/dL
- TG (24 h): 99.4 mg/dL
- TP (24 h): 5.6 g/dL
- gamma-GTP (24 h): 1.8 IU/L

Reference: ChEMBL document CHEMBL3885861, “Open TG-GATES”
